# From US20230256120A1, “DIAGNOSTIC AGENT FOR PANCREATIC FUNCTION” (HAMAMATSU PHOTONICS K.K., priority 2020, published 2023)
# Tested on: MC-I in the pancreas
# Test: PET measurement of [^18F]BCPP-BF accumulation in the pancreas of type II diabetes model rats
# Assay type: in vivo, rat
# Conditions: fatty rats versus lean rats; PET measurement method; after 5 weeks of age; FIG. 2(A)
# From the text: Male Zucker Leprfa/Leprfa rats (hereinafter also referred to as “fatty rats”) that develop pathological conditions similar to type II diabetes of human adults and male Zucker Leprfa/+ rats (hereinafter also referred to as “lean rats”) as controls thereof were purchased from Charles River Laboratories Japan, Inc., and used for PET measurement at 5, 8, 16, and 26 weeks of age.
# The rats were anesthetized with isoflurane and fixed in a gantry of an animal PET camera (SHR-38000, manufactured by Hamamatsu Photonics K.K.). […] After the completion of the PET measurement, a region of interest was set on the pancreas identified from an accumulated PET image 40 to 60 minutes after the administration of D-[^11C]MT, and the amount of [^18F]BCPP-BF accumulated in the region of interest was calculated. Subsequently, the calculated accumulation amount was normalized by the amount of radioactivity administered and the body weight of each individual and defined as an amount (amount (SUV) of radioactivity administered) of [^18F]BCPP-BF accumulated in the pancreas.
# The pancreas was excised from each rat immediately after the completion of the PET measurement, and the weight of the excised pancreas was measured. Subsequently, the radioactivity of the excised pancreas was measured using a gamma counter (manufactured by PerkinElmer Inc., 1480 WIZARD). […]
smiles,measurement,value
CC(C)(C)n1ncc(OCc2ccc(OCCCC[18F])nc2)c(Cl)c1=O [[^18F]BCPP-BF],uptake (SUV) of [^18F]BCPP-BF in the pancreas,decreased
